Earlier results on one compound are cited in patent publication US11141417B2 (priority 2013, dated 2021).

Entries after “also recorded” stand apart in the source; their conditions may differ.

For the data set the following is noted: classification in words.

Take `C[C@@H](c1ncncc1F)[C@](O)(Cn1cncn1)c1ccc(F)cc1F` [Voriconazole, (2R,3S)-2-(2,4-difluorophenyl)-3-(5-fluoro-4-pyrimidinyl)-1-(1H-1,2,4triazol-1-yl)-2-butanol]: the solubility in water entry is “only sparingly soluble in water; also recorded: very slightly soluble in water”.
